Data from patent US20260199289A1, “USE OF GLYCOGEN METABOLISM INHIBITORS FOR THE TREATMENT OF CANCER” (THE UNIVERSITY OF VERMONT AND STATE AGRICULTURAL COLLEGE, priority 2022, published 2026).
“Also recorded” adds a separate entry of the source.

What was measured:
8505C cells [1] = assay: SRB cell viability assay in ATC cells; type: cell-based, human; conditions: for cell viability of CP-treated cells with the exogenous agent: 8505C cells treated with CP-91,149
Description: In Vitro Cell Staining for Measuring Drug Efficacy—Thyroid cells (4.0×10^3) were seeded in 96 well plates with 100 μl CTM and allowed to adhere overnight. 100 μl of CTM containing 2× concentration of compound was overlayed in each well for 48 hours unless otherwise indicated. Each well then received 100 μl of 10% w/v cold trichloroacetic acid (Fisher) and incubated at 4° C. for 1 hour to fix the cells. Each well was rinsed 3× with DI H2O and stained with 100 μl 0.057% w/v sulforhodamine B (SRB, Sigma-Aldrich) for 30 minutes at room temperature in the dark. Wells were washed 4× with 300 μl 1% v/v acetic acid (Fisher), and remaining SRB stain was solubilized with 200 μl of 10 mM Tris buffer, pH 10.5 (Fisher). Absorbance was measured at 564 nm with a Synergy 2 Multi-Detection Microplate Reader (Agilent Technologies) and normalized to a vehicle control. Drug synergy was evaluated using the coefficient of drug interaction (CDI) formula: CDI=AB/(A×B)×100, where AB is the percent remaining cells of an indicated combination treatment, A is the average percent remaining cells of agent 1 alone, and B is the average percent remaining cells of agent 2 alone. […] Hao et al., “Effect of Lumiracoxib on Proliferation and Apoptosis of Human Nonsmall Cell Lung Cancer Cells In vitro,” Chin Med J (Engl) 121:602-607 (2008), which is hereby incorporated by reference in its entirety. […]

8505C cells [2] = assay: Reactive oxygen species quantification (H2DCFDA); type: cell-based, human; conditions: for ROS in CP-treated cells with the exogenous agent: 8505C cells treated with CP-91,149
Description: Quantification of Reactive Oxygen Species—Thyroid cells (1.0-2.0×10^4) were seeded in a black 96 well plate in 200 μl CTM and allowed to adhere overnight. Wells were washed with PBS and incubated with or without 25 μM H2DCFDA for 45 minutes at 37° C. in a non-CO2 incubator with compounds of interest diluted in phenol-red free RPMI (supplemented with 2 mM glutamine and 10% charcoal-stripped serum). Wells were washed with PBS and received compounds of interest diluted in phenol-red free, supplemented RPMI and incubated at 37° C. in a SpectraMax M4 Microplate Reader (Molecular Devices) to record fluorescent measurements (Ex/Em=485/535 nm) every 15 minutes overnight. Maximum fluorescence intensity was determined (~6 hours), background signal (—H2DCFDA) was subtracted from each group, and corrected values were normalized to the vehicle control.

8505C cells [3] = assay: Metabolic flux analysis (Seahorse ECAR and OCR); type: cell-based, human; conditions: 8505C cells
Description: Metabolic Flux Analysis—Thyroid cells (5.0×10^4) were plated in a 96 well Seahorse culture plate with compounds of interest diluted in 200 μl CTM for 24 hours. Cells were washed with PBS and equilibrated for 1 hour at 37° C. in a non-CO2 incubator with compounds of interest diluted in Seahorse RPMI (supplemented with 11.1 mM glucose, 2 mM glutamine, and 5% serum) before analysis of OCR and ECAR in a Metabolic Flux Analyzer (Seahorse Bioscience, North Billerica, MA 96XP).

8505C cells [4] = assay: Drug synergy by coefficient of drug interaction (SRB assay); type: cell-based, human; conditions: for drug interaction with 6-AN (coefficient of drug interaction class): combination with 6-AN (PPP inhibition)
Description: In Vitro Cell Staining for Measuring Drug Efficacy—Thyroid cells (4.0×10^3) were seeded in 96 well plates with 100 μl CTM and allowed to adhere overnight. 100 μl of CTM containing 2× concentration of compound was overlayed in each well for 48 hours unless otherwise indicated. Each well then received 100 μl of 10% w/v cold trichloroacetic acid (Fisher) and incubated at 4° C. for 1 hour to fix the cells. Each well was rinsed 3× with DI H2O and stained with 100 μl 0.057% w/v sulforhodamine B (SRB, Sigma-Aldrich) for 30 minutes at room temperature in the dark. Wells were washed 4× with 300 μl 1% v/v acetic acid (Fisher), and remaining SRB stain was solubilized with 200 μl of 10 mM Tris buffer, pH 10.5 (Fisher). Absorbance was measured at 564 nm with a Synergy 2 Multi-Detection Microplate Reader (Agilent Technologies) and normalized to a vehicle control. Drug synergy was evaluated using the coefficient of drug interaction (CDI) formula: CDI=AB/(A×B)×100, where AB is the percent remaining cells of an indicated combination treatment, A is the average percent remaining cells of agent 1 alone, and B is the average percent remaining cells of agent 2 alone. […] Hao et al., “Effect of Lumiracoxib on Proliferation and Apoptosis of Human Nonsmall Cell Lung Cancer Cells In vitro,” Chin Med J (Engl) 121:602-607 (2008), which is hereby incorporated by reference in its entirety.

ATC xenograft = conditions: cited from earlier work
[5] = system: Pancreatic adenocarcinoma cells; conditions: cited from earlier work
ATC = conditions: in vitro; cited from earlier work
8505C tumors = assay: 8505C xenograft tumor growth in nude mice; type: in vivo, mouse; conditions: intraperitoneal, 50 mg/kg CP-91,149, 10 mg/kg sorafenib, 6-7 days a week
Description: Ethics statement and animal modeling—All animal procedures were approved by Institutional Animal Care and Use Committee (IACUC) at the University of Vermont. All animals were maintained in pathogen-free conditions and cared for in accordance with IACUC policies and certification. All surgeries were performed with isoflurane anesthesia. Temperature-controlled post-surgical monitoring was implemented to minimize suffering. Mice carrying anaplastic thyroid tumors were euthanized at designated time points for tumor collection. Signs of ulceration or a maximum individual tumor size of 2000 mm^3 were used as a protocol-enforced endpoint.
Mice were given food and water ad libitum. […] These doses were based on previous reports.

HepG2 cells = conditions: HepG2 cells; cited from earlier work
[6] = ATC cell viability, combination with CP-91,149

CC(=O)N[C@@H](CS)C(=O)O [N-acetylcysteine]
cell viability of CP-treated cells with the exogenous agent (8505C cells [1]; listed as N-acetyl cysteine): can rescue ATC cells from CP-mediated loss in cell viability
cell viability of CP-treated cells with the exogenous agent (8505C cells [1]; listed as NAC): partially rescued
ROS in CP-treated cells with the exogenous agent (8505C cells [2]): ablated
ROS in CP-treated cells with the exogenous agent (8505C cells [2]; listed as N-acetyl cysteine): attenuated

O=CC[C@@H](O)[C@H](O)[C@H](O)CO [2-DG, 2-deoxyglucose]
cell viability with excess (2 mM) pyruvate (8505C cells [1]; 8505C cells, 48 hours): could be rescued
cell viability with excess (25 mM) glucose (8505C cells [1]; 8505C cells, 48 hours): rescued cell viability
cell viability with pyruvate depletion (8505C cells [1]; 8505C cells, 48 hours): only significantly impacted the 2-DG-treated cells
extracellular acidification rate (ECAR) (8505C cells [3]): significantly inhibited
reactive oxygen species (ROS) levels (8505C cells [2]; 8505C ATC cells): only modestly increased ROS levels
ROS levels with excess glucose (8505C cells [2]; 8505C cells): only in CP-treated cells
drug interaction with 6-AN (coefficient of drug interaction class) (8505C cells [4]; 8505C cells, 48 hours): drug antagonism
CDI values in combination with CP-91,149 (8505C cells [4]; [6]): ~1.0
drug interaction with CP-91,149 (coefficient of drug interaction class) (8505C cells [4]; [6]): drug additivity
lactate production (ATC xenograft): reduced lactate production
tumor size (ATC xenograft): failed to significantly reduce tumor size

O=C(N[C@@H](Cc1ccc(F)cc1)C(=O)N1CCC(O)CC1)c1cc2cc(Cl)ccc2[nH]1 [CP-320626, 5-chloro-N-[(2S)-3-(4-fluorophenyl)-1-(4-hydroxypiperidin-1-yl)-1-oxopropan-2-yl]-1H-indole-2-carboxamide]
cellular metabolism [5]: inhibited cellular respiration, the PPP, anaplerosis, and synthesis of ribose and fatty acids
sensitivity of cells [5]: sensitive

O=C(O)C(=O)CBr [3-BP, 3-bromopyruvic acid]
drug interaction with CP-91,149 (coefficient of drug interaction class) (8505C cells [4]; [6]): failed to achieve synergy

CN(C)C(=N)N=C(N)N [metformin]
ATC proliferation (ATC): limit ATC proliferation in vitro

COc1cc2nccc(Oc3ccc(NC(=O)NC4CC4)c(Cl)c3)c2cc1C(N)=O [lenvatinib, 4-[3-chloro-4-(cyclopropylcarbamoylamino)phenoxy]-7-methoxyquinoline-6-carboxamide]
drug interaction with CP-91,149 (coefficient of drug interaction class) (8505C cells [4]; [6]): drug additivity rather than synergy

COc1cccc2c1C(=O)c1c(O)c3c(c(O)c1C2=O)C[C@@](O)(C(=O)CO)C[C@@H]3O[C@H]1C[C@H](N)[C@H](O)[C@H](C)O1 [doxorubicin]
drug interaction with CP-91,149 (coefficient of drug interaction class) (8505C cells [4]; [6]): did not achieve synergy

NC(=O)c1ccc(N)nc1 [6-AN, 6-aminonicotinamide]
drug interaction with CP-91,149 (coefficient of drug interaction class) (8505C cells [4]; [6]): remarkable drug synergy

Nc1cc(C(F)(F)F)c(-c2cc(N3CCOCC3)nc(N3CCOCC3)n2)cn1 [buparlisib, 5-(2,6-dimorpholin-4-ylpyrimidin-4-yl)-4-(trifluoromethyl)pyridin-2-amine]
drug interaction with CP-91,149 (coefficient of drug interaction class) (8505C cells [4]; [6]): drug additivity rather than synergy

NC(=O)C1=CN([C@@H]2O[C@H](COP(=O)(O)OP(=O)(O)OC[C@H]3O[C@@H](n4cnc5c(N)ncnc54)[C@H](OP(=O)(O)O)[C@@H]3O)[C@@H](O)[C@H]2O)C=CC1 [NADPH]
cell viability of 2-DG-treated cells with the exogenous agent (8505C cells [1]; 8505C cells treated with 2-DG, 48 hours, replete media): only rescued cell viability in the CP-treated cells
cell viability of CP-treated cells with the exogenous agent (8505C cells [1]): partially rescued; also recorded: only rescued cell viability in the CP-treated cells; also recorded: can rescue ATC cells from CP-mediated loss in cell viability
ROS in 2-DG-treated cells with the exogenous agent (8505C cells [2]; 8505C cells treated with 2-DG, replete media): reduced ROS in both treatment groups
ROS in CP-treated cells with the exogenous agent (8505C cells [2]): ablated; also recorded: reduced ROS in both treatment groups; also recorded: attenuated

CNC(=O)c1cc(Oc2ccc(NC(=O)Nc3ccc(Cl)c(C(F)(F)F)c3)cc2)ccn1 [sorafenib, 4-[4-[[4-chloro-3-(trifluoromethyl)phenyl]carbamoylamino]phenoxy]-N-methylpyridine-2-carboxamide]
drug interaction with 6-AN (coefficient of drug interaction class) (8505C cells [4]; 8505C cells, 48 hours): drug synergy; also recorded: synergistic
drug interaction with inhibition of glycolysis (8505C cells [4]; 8505C cells, 48 hours): not glycolysis
drug interaction with CP-91,149 (coefficient of drug interaction class) (8505C cells [4]; [6]): high degree of drug synergy; also recorded: profound drug synergy
tumor growth (8505C tumors): notably stunted
synergy with CP-91,149 (HepG2 cells): displayed synergy

CC(=O)c1c(C)c2cnc(Nc3ccc(N4CCNCC4)cn3)nc2n(C2CCCC2)c1=O [palbociclib, 6-acetyl-8-cyclopentyl-5-methyl-2-[(5-piperazin-1-ylpyridin-2-yl)amino]pyrido[6,5-d]pyrimidin-7-one]
drug interaction with CP-91,149 (coefficient of drug interaction class) (8505C cells [4]; [6]): did not achieve synergy
